{"source": "paper PMC9135731", "about": "(Communications Biology, 2022)", "molecules": {"B1": {"name": "AviM PT domain (product template domain of the orsellinic acid synthase AviM) (domain or fragment, Streptomyces viridochromogenes Tü57)", "chain": "DSHTLLGTPGGVAGSDLRLWHSTLDDDSRPYPGSHALNGVEIVPAAVLAVTFLAAGAEGEERRALQDMTMTHPVLTAGQRQIQVVREGEVVRLASRTVADAADPNPAWLVHAEARTAAPDLAGLAARSLLDPGEHRLEPADPGLVSRRLAEVGVPSTGFDWSVERLSAGLGVLHAQVLSPDASSWAPLLDAVMSIAPAAFVGLPQLRMVVHVDEITVDGTPPEAATVEVALDPRVADTVHALVTDGEGRPVASLRGLRYP", "notes": "AviM, orsellinic acid synthase (iterative type I PKS, KS-AT-PT-ACP) of Streptomyces viridochromogenes Tü57; excised PT domain cloned as an 816 bp NdeI/EcoRI fragment in pET28a; An 816 bp fragment codes for about 272 residues, more than the 260 of residues 915-1174; also called bacterial PT domain; source: E. coli BL21(DE3), purified (Nickel-NTA, gel filtration); not shown: His6, N-terminal, kept"}}, "key": {"AviM": {"molecular_target": "T1, AviM (Streptomyces viridochromogenes, UniProt O05170)", "T1 construct": "expressed in E. coli BAP1 (sfp), phosphopantetheinylated with CoA and Sfp before assay", "T1 sequence (O05170 entry or part of it)": "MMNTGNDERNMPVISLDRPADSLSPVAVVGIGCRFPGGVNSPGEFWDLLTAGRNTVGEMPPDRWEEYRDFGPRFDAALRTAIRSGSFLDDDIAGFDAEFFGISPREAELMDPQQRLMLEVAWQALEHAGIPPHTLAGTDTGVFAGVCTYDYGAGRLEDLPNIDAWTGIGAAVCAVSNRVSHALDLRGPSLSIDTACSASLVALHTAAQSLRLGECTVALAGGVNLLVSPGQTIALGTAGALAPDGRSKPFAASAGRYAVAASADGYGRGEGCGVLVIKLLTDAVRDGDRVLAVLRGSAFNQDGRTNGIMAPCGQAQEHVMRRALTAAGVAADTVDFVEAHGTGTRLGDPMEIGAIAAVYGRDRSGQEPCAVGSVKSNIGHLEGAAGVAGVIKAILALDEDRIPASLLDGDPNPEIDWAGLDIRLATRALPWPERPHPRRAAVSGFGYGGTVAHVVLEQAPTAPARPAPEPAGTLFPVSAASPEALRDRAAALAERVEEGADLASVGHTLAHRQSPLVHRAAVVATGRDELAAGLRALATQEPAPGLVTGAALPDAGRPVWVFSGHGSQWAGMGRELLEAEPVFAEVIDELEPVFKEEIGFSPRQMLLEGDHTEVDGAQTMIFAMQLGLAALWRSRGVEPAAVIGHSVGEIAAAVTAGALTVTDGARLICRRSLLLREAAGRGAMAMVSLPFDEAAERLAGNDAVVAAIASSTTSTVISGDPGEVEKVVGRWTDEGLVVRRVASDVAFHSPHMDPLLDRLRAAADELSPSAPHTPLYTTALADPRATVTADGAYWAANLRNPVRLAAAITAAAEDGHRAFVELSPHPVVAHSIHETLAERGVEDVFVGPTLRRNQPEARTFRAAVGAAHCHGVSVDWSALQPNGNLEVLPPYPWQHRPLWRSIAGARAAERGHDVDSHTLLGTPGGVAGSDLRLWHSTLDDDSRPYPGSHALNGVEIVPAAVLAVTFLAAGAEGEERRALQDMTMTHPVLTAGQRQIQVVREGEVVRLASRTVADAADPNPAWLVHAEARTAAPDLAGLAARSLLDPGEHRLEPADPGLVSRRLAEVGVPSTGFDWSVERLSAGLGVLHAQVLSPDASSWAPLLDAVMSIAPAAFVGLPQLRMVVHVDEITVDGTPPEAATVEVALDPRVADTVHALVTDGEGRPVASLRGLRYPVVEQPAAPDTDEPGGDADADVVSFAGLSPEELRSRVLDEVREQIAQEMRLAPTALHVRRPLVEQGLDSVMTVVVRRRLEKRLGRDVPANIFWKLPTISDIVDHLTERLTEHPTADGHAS", "test": "LC-MS detection of orsellinic acid product", "type": "biochemical", "conditions": "50 uM enzyme, 10 mM MgCl2, pH 7.4, 25 °C, with CoA and Sfp"}, "[1]": {"molecular_target": "the molecule itself", "test": "SEC; Superdex 200/Superose 6 gel filtration column, 150 mM NaCl, 10 mM Tris pH 7.5, 4 °C"}}, "data": [{"molecule": "CC(=O)SCCNC(=O)CCNC(=O)[C@H](O)C(C)(C)COP(=O)(O)OP(=O)(O)OC[C@H]1O[C@@H](n2cnc3c(N)ncnc32)[C@H](O)[C@@H]1OP(=O)(O)O", "note": "[acetyl-CoA]", "values": [{"measurement": "LC-MS detection of orsellinic acid product", "setting": "AviM; starter unit, malonyl-CoA co-substrate", "result": "Trace amount of OSA was indeed produced when AviM was incubated with acetyl-CoA and malonyl-CoA"}]}, {"molecule": "CC(C)(COP(=O)(O)OP(=O)(O)OC[C@H]1O[C@@H](n2cnc3c(N)ncnc32)[C@H](O)[C@@H]1OP(=O)(O)O)[C@@H](O)C(=O)NCCC(=O)NCCSC(=O)CC(=O)O", "note": "[malonyl-CoA]", "values": [{"measurement": "LC-MS detection of orsellinic acid product", "setting": "AviM; extender unit, acetyl-CoA co-substrate", "result": "Trace amount of OSA was indeed produced when AviM was incubated with acetyl-CoA and malonyl-CoA"}]}, {"molecule": "B1", "values": [{"measurement": "stoichiometry N", "setting": "[1]", "result": 2}]}]}
